Measurements from publication PMC8279414, “Discovery and Synthesis of a Pyrimidine-Based Aurora Kinase Inhibitor to Reduce Levels of MYC Oncoproteins” (Journal of Medicinal Chemistry, 2021).
Like-named read-outs stand apart in the source and are kept apart here. One block for each compound: values may come before it.

What was measured:
[1] = target: T1, human Aurora A (amino acids 123–401) (Homo sapiens, UniProt O14965); assay: In vitro inhibition of Aurora A kinase activity (Kinase-Glo Plus Luminescent Kinase assay, ATP consumption); format: biochemical; conditions: mean of 2–3 independent determinations ± SD; >100 = inhibition < 50% at 100 nM
T1 construct: N-terminal truncated human Aurora A (amino acids 123–401); GST; made in house; host or cells: Sf9 insect cells
T1 sequence (O14965 123-401): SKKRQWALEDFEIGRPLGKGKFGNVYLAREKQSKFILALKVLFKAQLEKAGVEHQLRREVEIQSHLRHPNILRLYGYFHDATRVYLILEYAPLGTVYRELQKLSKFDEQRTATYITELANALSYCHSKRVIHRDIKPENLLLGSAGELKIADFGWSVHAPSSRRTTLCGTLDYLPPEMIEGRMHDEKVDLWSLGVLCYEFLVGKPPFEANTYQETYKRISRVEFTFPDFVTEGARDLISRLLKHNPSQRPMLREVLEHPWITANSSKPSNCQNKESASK
Protocol: The inhibitory potency of the newly synthesized small molecules against Aurora A was first measured in ATP consumption assays using purified Aurora A protein.
The efficacy of the compounds as inhibitors of Aurora A kinase was assessed in vitro using the Kinase-Glo Plus Luminescent Kinase assay (Promega, USA), as described previously.[45] […] The resulting mixture was incubated at 25 °C for 20 min. A 70 μL aliquot of the mixture was transferred to a black microtiter plate.

cMYC in NCI-H82 = assay: Western blot analysis of cMYC protein level in NCI-H82 cells; format: cell-based; conditions: for NCI-H82 cMYC, relative protein level: 1.0 μM of compound, mean ± SD, triplicate
Protocol: (§1) Cancer cells were treated with each of the compounds at different compound concentrations. […] Each lysate was separated by sodium dodecyl sulfate polyacrylamide gel electrophoresis (SDS-PAGE), transferred to polyvinylidene fluoride (PVDF, Millipore, USA) membrane, and blotted with antibodies. […] After the blotting (0.2% casein, 1% BSA, or 5% nonfat milk), membranes were washed with blotting buffer (0.2% casein in 1× PBS or 1× TBST), and corresponding alkaline phosphatase (AP)- or horseradish peroxidase (HRP)-conjugated secondary antibodies (Sigma-Aldrich) were added. The blots were developed by chemiluminescence (PerkinElmer, USA).

MYCN in SK-N-BE(2) = assay: Western blot analysis of MYCN protein level in SK-N-BE(2) cells; format: cell-based; conditions: for SK-N-BE(2) MYCN, relative protein level: 1.0 μM of compound, mean ± SD, triplicate
Protocol: as §1

NCI-H146 = assay: Cell proliferation inhibition assay (PrestoBlue); format: cell-based; conditions: NCI-H146 (MYC-unamplified), read-out: Compound 13 IC50 (half-proliferation inhibition concentration)
Description: (§2) SCLC is an aggressive malignancy that accounts for around 10–15% of all lung cancers, for which no targeted therapy is currently available.[29],[30] SCLC cells are characterized by rapid proliferation, universal RB1 and TP53 inactivation, and high rates of MYC-family amplification.[31] A recent study of MYC amplification in 77 formalin-fixed paraffin-embedded SCLC tumor samples using chromogenic in situ hybridization identified amplification of the MYC-family oncogenes in 20% of the tumors.[32],[33] Thus, we evaluated the growth-inhibitory effects of 13 on nine different SCLC cell lines: five with cMYC amplification, one with MYCN amplification, one with MYCL amplification, and two with no MYC-family amplification.
(§3) The efficacy of the compounds as inhibitors of cancer cell proliferation was assessed using PrestoBlue Cell Viability Reagent (ThermoFisher Scientific, USA). Cells were seeded at a density of 5000–10,000 cells per well in 96-well plates. After 24 h, cells were treated with each compound at various concentrations (0–10 μM). IC50 values were computed based on a triplicate, eight-point titration. After 72 h of drug treatment, 10 μL of PrestoBlue Cell Viability Reagent was added to each well, and fluorescence signals were collected using a Wallac Vector 1420 multilabel counter (PerkinElmer, USA).

NCI-H211 = assay: Cell proliferation inhibition assay (PrestoBlue); format: cell-based; conditions: Homo sapiens, NCI-H211, 72 h; read-out: Compound 13 IC50 (half-proliferation inhibition concentration)
Description: as §2, §3

NCI-H2171 = assay: Cell proliferation inhibition assay (PrestoBlue); format: cell-based; conditions: Homo sapiens, NCI-H2171, 72 h; read-out: Compound 13 IC50 (half-proliferation inhibition concentration)
Description: as §2, §3

NCI-H446 = assay: Cell proliferation inhibition assay (PrestoBlue); format: cell-based; conditions: Homo sapiens, NCI-H446, 72 h; read-out: Compound 13 IC50 (half-proliferation inhibition concentration)
Description: as §2, §3

NCI-H524 = assay: Cell proliferation inhibition assay (PrestoBlue); format: cell-based; conditions: Homo sapiens, NCI-H524, 72 h; read-out: Compound 13 IC50 (half-proliferation inhibition concentration)
Description: as §2, §3

NCI-H82 = assay: Cell proliferation inhibition assay (PrestoBlue); format: cell-based; conditions: Homo sapiens, NCI-H82, 72 h; read-out: Compound 13 IC50 (half-proliferation inhibition concentration)
Description: as §2, §3

[2] = tested on: high-MYC expressing small-cell lung cancer (SCLC) cell lines; assay: Cell proliferation inhibition assay, cell lines not named singly; format: cell-based; conditions: high-MYC expressing / cMYC-amplified SCLC cell lines, 72 h
Description: as §2, §3

[3] = tested on: NCI-H446 xenograft tumors; assay: In vivo xenograft tumor growth inhibition; set-up: species or system mice; conditions: for anticancer activity in NCI-H446 xenograft tumor model: oral administration, 5-on-2-off regimen
Protocol: (§4) Male athymic nu/nu nude mice (BioLASCO, Taiwan) 6 weeks old were housed in sterile cages maintained under 12 h light/dark cycles with controlled temperature and humidity. Mice were inoculated subcutaneously with 1 × 10^6 NCI–H446 cells (ATCC@ HTB-171) resuspended in saline mixed with 50% Matrigel matrix (Corning, USA). The sizes of the xenografted tumors were measured by a digital caliper (GMC-190; Goldsun Electronics Co.) and calculated using the formula: tumor volume (mm^3) = length × (width)2/2. Body weight and tumor size were measured at least twice a week. When the xenograft tumor reached ≥200 mm^3 in size, mice were intravenous or orally administered with the vehicle (5% dimethylacetamide/95% PEG400) or the compounds on a 5-on-2-off dosing regimen for 2–4 weeks. Tumor growth was analyzed for a statistically significant difference using ANOVA, followed by the Student–Newman–Keuls test. P < 0.05 was considered a significant difference between groups.

[4] = Body weight of xenograft mice during treatment; format: in vivo
Protocol: as §4

[5] = tested on: cMYC in NCI-H446 xenograft tumors; assay: In vivo target validation: cMYC protein level in tumors (western blot); set-up: species or system mice; conditions: single oral dose 100 mg/kg
Protocol: (§5) Tumors were harvested after 2, 4, 8, and 24 h of the treatment, respectively (Figure 4A). Whole tumor tissues were collected for western blotting and immunohistochemistry (IHC) analyses. […] The western blot result of phosphorylated Aurora A/B/C was not provided due to the inability of detecting the signal in the tumor tissues.
(§6) The efficacy of a compound in reducing the MYC protein level and in inducing cell apoptosis was assessed using an NCI-H446 xenograft tumorigenicity mouse model. Six-week-old male athymic nu/nu nude mice (BioLASCO, Taiwan) were inoculated subcutaneously with 1 × 10^6 NCI-H446 cells resuspended in saline mixed with 50% Matrigel matrix (Corning, USA). […] Tumors were harvested after 2, 4, 8, and 24 h of drug treatment, respectively. Half of the tumor was cryopreserved and then subjected to western analysis; the other half was fixed in 10% formalin and then embedded in paraffin. For immunohistochemistry, tissue paraffin sections were deparaffinized using xylene and ethanol. After rehydration, antigen retrieval was achieved by placing the slides in 100 °C citrate buffer, pH 6.0 for 1 h. Endogenous peroxides were quenched by 0.5% H2O2 for 10 min. Slides were blocked with 3% BSA for 30 min and then incubated with a rabbit anticleaved Caspase-3 antibody (Cell signaling, 9661S) at room temperature for 1.5 h. After three washes with 1× PBS, a goat antirabbit HRP-polymer (Biocare Medical, USA) was added, followed by development of the color using 3,3′-diaminobenzidine substrate chromogen (Biocare Medical, USA). The nucleus was stained with hematoxylin.

[6] = tested on: pH3(Ser10) in NCI-H446 xenograft tumors; assay: In vivo target validation: phosphorylation of histone H3 at Ser10 in tumors (western blot); set-up: species or system mice; conditions: single oral dose 100 mg/kg, 2 h after drug administration
Protocol: as §5
as §6, with “After three washes with 1× PBS, a goat antirabbit HRP-polymer (Biocare Medical, USA) was added, followed by development of the color using 3,3′-diaminobenzidine substrate chromogen (Biocare Medical, USA). The nucleus was stained with hematoxylin.” left out

[7] = tested on: cleaved PARP-1 (cPARP-1) in NCI-H446 xenograft tumors; assay: In vivo target validation: cleaved PARP-1 in tumors (western blot); set-up: species or system mice; conditions: single oral dose 100 mg/kg, after 24 h
Protocol: (§7) Apoptosis was assessed using levels of PARP-1, one of several known cellular substrates of caspases; cleavage of PARP-1 by caspases is considered a hallmark of apoptosis.[44]
as §6, with “The nucleus was stained with hematoxylin.” left out

[8] = tested on: cleaved Caspase-3 (CASP3) in NCI-H446 xenograft tumors; assay: In vivo target validation: cleaved Caspase-3 immunohistochemistry; set-up: species or system mice; conditions: single oral dose 100 mg/kg
Protocol: as §7
as §6, with “The nucleus was stained with hematoxylin.” left out

[9] = PO, 5-on-2-off, after end of dosing

- IC50 [1]: 38.6 ± 7 nM
- IC50 (NCI-H146; Homo sapiens, NCI-H146, 72 h): 1180 nM
- IC50 (NCI-H146; 72 h): > 1000 nM
- IC50 (NCI-H211): 105 nM
- IC50 (NCI-H2171): 27.1 nM
- IC50 (NCI-H446): 120 nM
- IC50 (NCI-H524): 3.36 nM
- IC50 (NCI-H82): 51.7 nM
- IC50 [2]: < 200 nM
SMILES: CCN1CCN(c2cc(Nc3cc(C)[nH]n3)nc(N[C@H]3CCN(C(=O)c4ccc(Cl)cc4F)C3)n2)CC1 [Compound 13, (S)-(4-Chloro-2-fluorophenyl) (3-((4-(4-ethylpiperazin-1-yl)-6-((5-methyl-1H-pyrazol-3-yl)amino)pyrimidin-2-yl)amino)pyrrolidin-1-yl)methanone]
- reduction of cMYC level (cMYC in NCI-H82; 1.0 μM): > 50%
- NCI-H82 cMYC, relative protein level (cMYC in NCI-H82; 24 h): 0.475 ± 0.023
- effect on cMYC protein level in NCI-H82 (cMYC in NCI-H82; various concentrations, 24 h): dose-dependent loss
- reduction of MYCN level (MYCN in SK-N-BE(2); 1.0 μM): > 50%
- SK-N-BE(2) MYCN, relative protein level (MYCN in SK-N-BE(2); 24 h): 0.487 ± 0.066
- effect on MYCN protein level in SK-N-BE(2) (MYCN in SK-N-BE(2); various concentrations, 24 h): dose-dependent loss
- tumor growth inhibition ([3]; IV 50 mg/kg, 5-on-2-off dosing schedule, two weeks, nude mice): > 90%
- body weight change ([4]; IV 50 mg/kg, 5-on-2-off, during the treatment): less than 5%

- IC50 [1]: 64.9 ± 13.7 nM
SMILES: CCN1CCN(c2cc(Nc3cc(C)[nH]n3)nc(N[C@H]3CCN(C(=O)c4ccc(Cl)c(F)c4F)C3)n2)CC1 [Compound 17, (S)-(4-Chloro-2,3-difluorophenyl) (3-((4-(4-ethylpiperazin-1-yl)-6-((5-methyl-1H-pyrazol-3-yl)amino)pyrimidin-2-yl)amino)pyrrolidin-1-yl)methanone]
- NCI-H82 cMYC, relative protein level (cMYC in NCI-H82; 24 h): 0.744 ± 0.124
- SK-N-BE(2) MYCN, relative protein level (MYCN in SK-N-BE(2); 24 h): 0.541 ± 0.068

SMILES: CCOC(=O)n1nc(C)cc1Nc1cc(N2CCN(CC)CC2)nc(N[C@H]2CCN(C(=O)c3ccc(Cl)cc3F)C2)n1 [Compound 22, Ethyl (S)-5-((2-((1-(4-chloro-2-fluorobenzoyl)pyrrolidin-3-yl)amino)-6-(4-ethylpiperazin-1-yl)pyrimidin-4-yl)amino)-3-methyl-1H-pyrazole-1-carboxylate]
- anticancer activity in NCI-H446 xenograft tumor model [3]: dose-dependent anticancer activity

SMILES: CCC(=O)n1nc(C)cc1Nc1cc(N2CCN(CC)CC2)nc(N[C@H]2CCN(C(=O)c3ccc(Cl)cc3F)C2)n1 [Compound 25, (S)-1-(5-((2-((1-(4-Chloro-2-fluorobenzoyl)pyrrolidin-3-yl)amino)-6-(4-ethylpiperazin-1-yl)pyrimidin-4-yl)amino)-3-methyl-1H-pyrazol-1-yl)propan-1-one]
- shrinkage of tumors with volume >750 mm^3 ([3]; PO 100 mg/kg, 5-on-2-off, 2 weeks): great potency to shrink tumors
- tumor volume regression ([3]; PO 100 mg/kg, 5-on-2-off, four consecutive weeks): > 80%
- xenografted tumors remained stable after the last dosage [3, 9]: 44 days
- anticancer activity in NCI-H446 xenograft tumor model [3]: dose-dependent anticancer activity
- body weight change ([4]; PO 100 mg/kg, 4-week dosing period): less than 5%
- cMYC protein level relative to vehicle-treated tumors ([5]; 24 h after dosing): around 37%
- relative cMYC protein level in tumors ([5]; 24 h post-treatment, vehicle 1.0 ± 0.230): 0.374 ± 0.204
- reduction of phosphorylation level of histone H3 at Ser10 [6]: > 90%
- cleaved PARP-1 (cPARP-1) levels in tumor tissues [7]: significantly upregulated
- incidence of cleaved Caspase-3 (CASP3), IHC [8]: greatly increased

SMILES: COc1cc(Nc2ncc3c(n2)-c2ccc(Cl)cc2C(c2c(F)cccc2OC)=NC3)ccc1C(=O)O [MLN8237, reference compound]
- tumors started to grow, day after the last dosage [3, 9]: 22 days
- effect on the cMYC level in tumors ([5]; 2–24 h): marginal effect
- reduction of phosphorylation level of histone H3 at Ser10 [6]: > 90%
- cleaved PARP-1 (cPARP-1) levels in tumor tissues [7]: significantly upregulated
